Assay results taken from patent publication US11111214B2 (priority 2013, dated 2021).

How the values were obtained:
[1] = not given; remark: listed apart in the source
[2] = in vitro; conditions: rat, hepatocytes
[3] = in vitro; conditions: human, hepatocytes
[4] = molecular target: T1, recombinant human kappa (KOR) opioid receptor (Homo sapiens, UniProt P41145); assay: biochemical; format: binding
T1 construct: expressed in transfected cells; host or cells: CHO-K1 cell membranes

[5] = molecular target: T2, recombinant human mu (MOR) opioid receptor (Homo sapiens, UniProt P35372); assay: biochemical; format: binding; conditions: for inhibition at 10 µM: read-out: Mu receptor % inhibition at single concentration, % inhibition @ 10 μM
T2 construct: expressed in transfected cells; host or cells: CHO-K1 cell membranes
T2 sequence (P35372 whole entry): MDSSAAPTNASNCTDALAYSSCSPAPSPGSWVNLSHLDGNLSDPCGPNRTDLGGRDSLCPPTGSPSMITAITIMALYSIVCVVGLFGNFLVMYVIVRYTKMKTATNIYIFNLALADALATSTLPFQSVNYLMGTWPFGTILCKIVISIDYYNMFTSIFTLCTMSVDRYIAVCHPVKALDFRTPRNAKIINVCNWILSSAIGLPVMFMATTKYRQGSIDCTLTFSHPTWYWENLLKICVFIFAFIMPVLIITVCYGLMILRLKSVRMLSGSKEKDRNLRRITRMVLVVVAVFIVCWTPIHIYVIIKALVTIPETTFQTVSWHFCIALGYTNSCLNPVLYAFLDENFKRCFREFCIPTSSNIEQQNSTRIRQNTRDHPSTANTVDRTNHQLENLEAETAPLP

[6] = molecular target: T3, KOR (kappa opioid receptor) (Homo sapiens, UniProt P41145); assay: cell-based
T3 construct: expressed in transfected cells; host or cells: CHO-K1 cells stably expressing KOR
T3 sequence (P41145 whole entry): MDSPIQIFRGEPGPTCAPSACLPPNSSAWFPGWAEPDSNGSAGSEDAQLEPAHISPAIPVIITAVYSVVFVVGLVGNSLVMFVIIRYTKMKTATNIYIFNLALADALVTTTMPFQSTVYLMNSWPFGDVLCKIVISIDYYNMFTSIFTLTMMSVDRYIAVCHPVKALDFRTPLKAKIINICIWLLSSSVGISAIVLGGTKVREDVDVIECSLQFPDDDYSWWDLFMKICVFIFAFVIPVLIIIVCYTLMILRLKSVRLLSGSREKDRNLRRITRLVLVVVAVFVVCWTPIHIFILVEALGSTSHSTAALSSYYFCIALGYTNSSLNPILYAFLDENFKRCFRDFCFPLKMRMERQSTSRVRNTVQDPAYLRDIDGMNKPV

T1 sequence (P41145 whole entry): as above

Row | Structure (SMILES) | In vitro Hepatocyte Clearance, Rat % hep Blood flow [%] | In vitro Hepatocyte Clearance, Human % hep Blood flow [1] [%] | CLhep predicted [2] [mL/min/kg] | CLhep predicted [3] [mL/min/kg] | IC50 [4] [nM] | Ki [4] [nM] | IC50 [5] [nM] | inhibition at 10 µM [5] [%] | EC50 [6] [nM]
1 | CN(C(=O)C(c1ccccc1)c1ccccc1)[C@H](CN1CC[C@H](O)C1)c1ccccc1 [Asimadoline, asimadoline, reference compound] | 85.0 | 79.0 | 51 | 18.2 | – | – | – | – | –
2 | CN(C(=O)Cc1ccc(Cl)c(Cl)c1)[C@H](CN1CCCC1)c1ccccc1 [ICI-199,441, reference compound] | 73.0 | 85.0 | 44 | 19.7 | – | – | – | – | –
3 | COCCOCCOCCO[C@H]1CCN(C[C@H](c2ccccc2)N(C)C(=O)Cc2ccc(Cl)c(Cl)c2)C1.Cl [compound 4, 2-(3,4-Dichlorophenyl)-N-{(1S)-2-[(3S)-3-(2-(2-(2-methoxyethoxy)ethoxy]ethoxy)pyrrolidin-1-yl)-1-phenylethyl}-N-methylacetamide] | 82 | 84 | 49 | 19.4 | 8.9 | 2.1 | 20400 | 82 | 0.42
4 | COCCOCCOCCNC(=O)O[C@H]1CCN(C[C@H](c2ccccc2)N(C)C(=O)Cc2ccc(Cl)c(Cl)c2)C1.Cl [compound 5, (3S)-1-[(2S)-2-{[(3,4-Dichlorophenyl)acetyl](methyl)amino}-2-phenylethyl]pyrrolidin-3-yl {2-[2-(2-methoxyethoxy)ethoxy]ethyl}carbamate] | 82 | 88 | 49.1 | 20.4 | 1190 | 275 | – | 35.6 | 75.7
5 | COCCOCCOCCOCCOCCNC(=O)O[C@H]1CCN(C[C@H](c2ccccc2)N(C)C(=O)Cc2ccc(Cl)c(Cl)c2)C1.Cl [compound 6, (3S)-1-[(2S)-2-{[(3,4-Dichlorophenyl)acetyl](methyl)amino}-2-phenylethyl]pyrrolidin-3-yl 2,5,8,11,14-pentaoxahexadecan-16-ylcarbamate] | 81 | 86 | 48.8 | 20.1 | 1100 | 255 | 31200 | 20.6 | 56
6 | CCN(CCOC)C[C@H](c1ccccc1)N(C)C(=O)Cc1ccc(Cl)c(Cl)c1.Cl [compound 10, 2-(3,4-Dichlorophenyl)-N-{(1S)-2-[ethyl(2-methoxyethyl)amino]-1-phenylethyl}-N-methylacetamide] | 83 | 89 | 49.7 | 20.6 | 82.7 | 19.1 | – | 82.8 | 3.1
7 | CN(C(=O)Cc1ccc(Cl)c(Cl)c1)[C@H](CN1CCCC1)c1cccc(NS(=O)(=O)CCOCC(F)(F)F)c1.Cl [compound 19, 2-(3,4-dichlorophenyl)-N-methyl-N-{(1S)-2-(pyrrolidin-1-yl)-1-[3-({[2-(2,2,2-trifluoroethoxy)ethyl]sulfonyl}amino)phenyl]ethyl}acetamide] | 45 | 50 | 26.8 | 11.7 | 0.69 | 0.16 | – | 99.1 | 0.08
8 | COCCOCCOCCOCCOCCOc1ccc([C@@H](CN2CCCC2)N(C)C(=O)Cc2ccc(Cl)c(Cl)c2)cc1.Cl [compound 34, (S)—N-(1-(4-(2,5,8,11,14-pentaoxahexadecan-16-yloxy)phenyl)-2-(pyrrolidin-1-yl)ethyl)-2-(3,4-dichlorophenyl)-N-methylacetamide] | 26 | 71 | 15.4 | 16.4 | 107 | 24.6 | – | 17.6 | 13
9 | COCCOCCOCCOCCOCCNc1ccc([C@@H](CN2CCCC2)N(C)C(=O)Cc2ccc(Cl)c(Cl)c2)cc1 [compound 35, (S)—N-(1-(4-(2,5,8,11,14-pentaoxahexadecan-16-ylamino)phenyl)-2-(pyrrolidin-1-yl)ethyl)-2-(3,4-dichlorophenyl)-N-methylacetamide] | 44 | 65 | 26.5 | 15 | 24.7 | 5.7 | – | 30.6 | 2.59
10 | CN(C(=O)Cc1ccc(Cl)c(Cl)c1)[C@H](CN1CCCC1)c1ccc(OCCO)cc1.Cl [compound 36, (S)-2-(3,4-dichlorophenyl)-N-(1-(4-(2-hydroxyethoxy)phenyl)-2-(pyrrolidin-1-yl)ethyl)-N-methylacetamide] | 24 | 71 | 14.3 | 16.5 | 0.43 | 0.1 | – | 64.9 | 0.029
11 | COCCOCCOCCO[C@H]1CCN(C[C@H](c2ccc(OCCO)cc2)N(C)C(=O)Cc2ccc(Cl)c(Cl)c2)C1 [compound 37, 2-(3,4-Dichlorophenyl)-N-{(1S)-1-[4-(2-hydroxyethoxy)phenyl]-2-[(3S)-3-{2-[2-(2-methoxyethoxy)ethoxy]ethoxy}pyrrolidin-1-yl]ethyl}-N-methylacetamide] | – | – | – | – | 98.1 | 22.6 | – | 57.8 | 4.15
12 | CN(C(=O)Cc1ccc(Cl)c(Cl)c1)[C@H](CN1CC[C@H](O)C1)c1ccc(OCCO)cc1 [compound 38, 2-(3,4-dichlorophenyl)-N—((S)-1-(4-(2-hydroxyethoxy)phenyl)-2-((S)-3-hydroxypyrrolidin-1-yl)ethyl)-N-methylacetamide] | – | – | – | – | 0.49 | 0.06 | – | 87.2 | 0.03
13 | COCCOCCOCCOCCOCCN1CCN(C[C@H](c2ccccc2)N(C)C(=O)Cc2ccc(Cl)c(Cl)c2)CC1 [compound 39, (S)—N-(2-(4-(2,5,8,11,14-pentaoxahexadecan-16-yl)piperazin-1-yl)-1-phenylethyl)-2-(3,4-dichlorophenyl)-N-methylacetamide] | – | – | – | – | 18500 | 4270 | – | 9.6 | 1950
14 | COCCOCCOCCOCCOCCOCCOCCOC(=O)N[C@H](C(=O)Nc1cccc([C@@H](CN2CC[C@H](O)C2)N(C)C(=O)Cc2ccc(Cl)c(Cl)c2)c1)C(C)C [compound 48, N-(3-{(1S)-1-{[(3,4-Dichlorophenyl)acetyl](methyl)amino}-2-[(3S)-3-hydroxypyrrolidin-1-yl]ethyl}phenyl)-N^2-2,5,8,11,14,17,20,23-octaoxatetracosan-1-oylvalinamide] | – | – | – | – | 3.48 | 0.8 | – | 73.2 | 0.43
15 | COCCOCCOCCOCCOCCOCCOCCOC(=O)NC1(C(=O)Nc2cccc([C@@H](CN3CC[C@H](O)C3)N(C)C(=O)Cc3ccc(Cl)c(Cl)c3)c2)CC1 [compound 49, 2,5,8,11,14,17,20-Heptaoxadocosan-22-yl {1-[(3-{(1S)-1-{[(3,4dichlorophenyl)acetyl](methyl)amino}-2-[(3S)-3-hydroxypyrrolidin-1yl]ethyl}phenyl)carbamoyl]cyclopropyl}carbamate] | – | – | – | – | 1.61 | 0.37 | – | 78.1 | 0.11
16 | COCCOCC(=O)Nc1cccc([C@@H](CN2CC[C@H](O)C2)N(C)C(=O)Cc2ccc(Cl)c(Cl)c2)c1 [compound 50, 2-(3,4-dichlorophenyl)-N-[(1S)-2-[(3S)-3-hydroxypyrrolidin-1-yl]-1-(3-{[(2-methoxyethoxy)acetyl]amino}phenyl)ethyl]-N-methylacetamide] | – | – | – | – | 0.52 | 0.12 | – | 101 | 0.06
17 | CN(C(=O)C(c1ccccc1)c1ccccc1)[C@H](CN1CCCC1)c1cccc(N)c1 [compound 51, (S)—N-Methyl-N-(1-(3-aminophenyl)-2-(pyrrolidin-1-yl)ethyl)-2,2-diphenylacetamide] | – | – | – | – | 62.2 | 14.3 | – | 54.5 | 5.18
